Source: US9365522B2, “Pyrazole amide derivative” (AMGEN INC., priority 2015, dated 2016)

The compounds below were run against T1, ligand binding domain of human ROR gamma (Homo sapiens, UniProt P51449) (assay: ROR gamma reporter gene assay (GAL4-RORγ LBD luciferase, Dual-Glo)). Settings: HEK293T cells transfected with pM-ROR gamma, 8 concentrations 3.5 nM to 10.5 μM, 24 h incubation; read-out: result (pIC50, inhibition of RORγ transcriptional activity) (converted).
T1 construct: NM_001001523; expressed in transfected cells; host or cells: HEK293T
T1 sequence (P51449 247-497 isoform P51449-2): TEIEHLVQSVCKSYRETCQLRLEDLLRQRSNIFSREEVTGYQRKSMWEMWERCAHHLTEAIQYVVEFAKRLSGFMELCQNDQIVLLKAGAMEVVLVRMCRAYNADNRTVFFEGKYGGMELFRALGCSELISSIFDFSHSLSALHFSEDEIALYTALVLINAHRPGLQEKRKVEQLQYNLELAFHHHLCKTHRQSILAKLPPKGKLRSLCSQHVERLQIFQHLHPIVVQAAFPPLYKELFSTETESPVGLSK
Assay type: cell-based
Outline: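 HEK293T cells were co-transfected with GAL4 DBD fused to human RORγ LBD (aa 247-497), a 5×UAS firefly luciferase reporter and CMV-driven renilla luciferase, in medium with 10% charcoal-stripped FBS.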

First: CC1(C)CCC(N(CCc2c[nH]c3cccc(Cl)c23)C(=O)c2cnn([C@H]3CC[C@](C)(C(=O)O)CC3)c2C(F)(F)F)CC1 [Example 349, trans-4-(4-(2-(4-chloro-1H-indol-3-yl)ethyl-(4,4-dimethylcyclohexyl)carbamoyl)-5-(trifluoromethyl)pyrazol-1-yl)-1-methylcyclohexane-1-carboxylic acid]
Second: CC(C)(C)CN(CC(=O)c1c[nH]c2cccc(Cl)c12)C(=O)c1cnn([C@H]2CC[C@](C)(C(=O)O)CC2)c1C(F)(F)F [Example 352, trans-4-(4-((2-(4-chloro-1H-indol-3-yl)-2-oxoethyl)-(2,2-dimethylpropyl)carbamoyl)-5-(trifluoromethyl)pyrazol-1-yl)-1-methylcyclohexane-1-carboxylic acid]
The IC50 of the first is 51-fold lower: 79400 pM for the first, 4.07e+06 pM for the second.

Compared with `CC(C)(C)S(=O)(=O)CCN(CC(=O)c1c(Cl)cc(F)cc1Cl)C(=O)c1cnn([C@H]2CC[C@](C)(C(=O)O)CC2)c1C(F)(F)F` [Example 350, trans-4-(4-(2-tert-butylsulfonylethyl-(2-(2,6-dichloro-4-fluorophenyl)-2-oxoethyl)carbamoyl)-5-(trifluoromethyl)pyrazol-1-yl)-1-methylcyclohexane-1-carboxylic acid], `CC(C)(C)[S+]([O-])CCN(CC(=O)c1c(Cl)cc(F)cc1Cl)C(=O)c1cnn([C@H]2CC[C@](C)(C(=O)O)CC2)c1C(F)(F)F` (stereo partly drawn) [Example 351, trans-4-(4-(2-tert-butylsulfinylethyl-(2-(2,6-dichloro-4-fluorophenyl)-2-oxoethyl)carbamoyl)-5-(trifluoromethyl)pyrazol-1-yl)-1-methylcyclohexane-1-carboxylic acid] is 6.3-fold higher in IC50: 1.15e+06 pM for the first, 7.24e+06 pM for the second.

Going from `C[C@]1(C(=O)O)CC[C@H](n2ncc(C(=O)N(CCN3CCCC(F)C3)CC(=O)c3c(Cl)cc(F)cc3Cl)c2C(F)(F)F)CC1` (stereo partly drawn) [Example 353, trans-4-(4-((2-(2,6-dichloro-4-fluorophenyl)-2-oxoethyl)-(2-(3-fluoropiperidin-1-yl)ethyl)carbamoyl)-5-(trifluoromethyl)pyrazol-1-yl)-1-methylcyclohexane-1-carboxylic acid] to `Cc1cc(Cl)c(C(=O)CN(CC(C)(C)C)C(=O)c2cnn([C@H]3CC[C@](C)(C(=O)O)CC3)c2Cl)c(Cl)c1` [Example 359, trans-4-(5-chloro-4-((2-(2,6-dichloro-4-methylphenyl)-2-oxoethyl)-(2,2-dimethylpropyl)carbarnoyl)pyrazol-1-yl)-1-methylcyclohexane-1-carboxylic acid], the IC50 falls from 178000 pM to 26300 pM (6.8-fold).

Compared with `CC1(C)[C@@H]2C[C@H](N(C[C@H](O)c3c(F)cccc3Cl)C(=O)c3cnn([C@H]4CC[C@](C)(C(=O)O)CC4)c3C(F)(F)F)C[C@@H]21` [Example 354, trans-4-(4-((2-(2-chloro-6-fluorophenyl)-2-hydroxyethyl)((1R,3r,5S)-6,6-dimethylbicyclo[3.1.0]hexan-3-yl)carbamoyl)-5-(trifluoromethyl)-1H-pyrazol-1-yl)-1-methylcyclohexanecarboxylic acid], `CC1(C)[C@@H]2C[C@H](N(C[C@@H](O)c3c(F)cccc3Cl)C(=O)c3cnn([C@H]4CC[C@](C)(C(=O)O)CC4)c3C(F)(F)F)C[C@@H]21` [Example 355, trans-4-(4-((2-(2-chloro-6-fluorophenyl)-2-hydroxyethyl)((1R,3r,5S)-6,6-dimethylbicyclo[3.1.0]hexan-3-yl)carbamoyl)-5-(trifluoromethyl)-1H-pyrazol-1-yl)-1-methylcyclohexanecarboxylic acid] is 23-fold lower in IC50: 513000 pM for the first, 21900 pM for the second.

Compared with `COc1cccc(Cl)c1[C@@H](O)CN(CC(C)(C)C)C(=O)c1cnn([C@H]2CC[C@](C)(C(=O)O)CC2)c1C(F)(F)F` [Example 356, trans-4-(4-(((2R)-2-(2-chloro-6-methoxyphenyl)-2-hydroxyethyl)-(2,2-dimethylpropyl)carbamoyl)-5-(trifluoromethyl)pyrazol-1-yl)-1-methylcyclohexane-1-carboxylic acid], `COc1cccc(Cl)c1[C@H](O)CN(CC(C)(C)C)C(=O)c1cnn([C@H]2CC[C@](C)(C(=O)O)CC2)c1C(F)(F)F` [Example 357, trans-4-(4-(((2S)-2-(2-chloro-6-methoxyphenyl)-2-hydroxyethyl)-(2,2-dimethylpropyl)carbamoyl)-5-(trifluoromethyl)pyrazol-1-yl)-1-methylcyclohexane-1-carboxylic acid] is higher in IC50: 102000 pM for the first, no less than 1e+07 pM for the second.

Compared with `CC(C)(C)CN(CC(=O)c1c(Cl)cccc1Cl)C(=O)c1cnn([C@H]2CC[C@](C)(C(=O)O)CC2)c1Cl` [Example 358, trans-4-(5-chloro-4-((2-(2,6-dichlorophenyl)-2-oxoethyl)-(2,2-dimethylpropyl)carbamoyl)pyrazol-1-yl)-1-methylcyclohexane-1-carboxylic acid], `CC1(C)[C@@H]2C[C@H](N(CC(=O)c3c(Cl)cccc3Cl)C(=O)c3cnn([C@H]4CC[C@](C)(C(=O)O)CC4)c3Cl)C[C@@H]21` [Example 363, trans-4-(5-chloro-4-((2-(2,6-dichlorophenyl)-2-oxoethyl)((1R,3r,5S)-6,6-dimethylbicyclo[3.1.0]hexan-3-yl)carbamoyl)-1H-pyrazol-yl)-1-methylcyclohexanecarboxylic acid] is 4.7-fold lower in IC50: 61700 pM for the first, 13200 pM for the second.

`Cc1[nH]c2cccc(Cl)c2c1CCN(CC(C)(C)C)C(=O)c1cnn([C@H]2CC[C@](C)(C(=O)O)CC2)c1C(F)(F)F` [Example 360, trans-4-(4-(2-(4-chloro-2-methyl-1H-indol-3-yl)ethyl-(2,2-dimethylpropyl)carbamoyl)-5-(trifluoromethyl)pyrazol-1-yl)-1-methylcyclohexane-1-carboxylic acid] and `CC1(C)[C@@H]2C[C@H](N(C[C@H](O)c3ccccc3Cl)C(=O)c3cnn([C@H]4CC[C@](C)(C(=O)O)CC4)c3C(F)(F)F)C[C@@H]21` [Example 368, trans-4-(4-((2-(2-chlorophenyl)-2-hydroxyethyl)((1R,3r,5S)-6,6-dimethylbicyclo[3.1.0]hexan-3-yl)carbamoyl)-5-(trifluoromethyl)-1H-pyrazol-1-yl)-1-methylcyclohexanecarboxylic acid] are within 1.5-fold of each other in IC50: 178000 pM for the first, 191000 pM for the second.

`Cc1c(C(=O)N(CC(=O)c2c(Cl)cccc2Cl)[C@H]2C[C@@H]3[C@H](C2)C3(C)C)cnn1[C@H]1CC[C@](C)(C(=O)O)CC1` [Example 364, trans-4-(4-((2-(2,6-dichlorophenyl)-2-oxoethyl)((1R,3r,5S)-6,6-dimethylbicyclo[3.1.0]hexan-3-yl)carbamoyl)-5-methyl-1H-pyrazol-1-yl)-1-methylcyclohexanecarboxylic acid] and `Cc1cc(Cl)c(C(=O)CN(C(=O)c2cnn([C@H]3CC[C@](C)(C(=O)O)CC3)c2C)[C@H]2C[C@@H]3[C@H](C2)C3(C)C)c(Cl)c1` [Example 365, trans-4-(4-((2-(2,6-dichloro-4-methylphenyl)-2-oxoethyl)((1R,3r,5S)-6,6-dimethylbicyclo[3.1.0]hexan-3-yl)carbamoyl)-5-methyl-1H-pyrazol-1-yl)-1-methylcyclohexanecarboxylic acid] are within 1.5-fold of each other in IC50: 45700 pM for the first, 30900 pM for the second.

Going from `Cc1cc(Cl)c(C(=O)CN(C(=O)c2cnn([C@H]3CC[C@](C)(C(=O)O)CC3)c2Cl)[C@H]2C[C@@H]3[C@H](C2)C3(C)C)c(Cl)c1` [Example 366, trans-4-(5-chloro-4-((2-(2,6-dichloro-4-methylphenyl)-2-oxoethyl)((1R,3r,5S)-6,6-dimethylbicyclo[3.1.0]hexan-3-yl)carbamoyl)-1H-pyrazol-1-yl)-1-methylcyclohexanecarboxylic acid] to `CC1(C)[C@@H]2C[C@H](N(CC(=O)c3c(Cl)cncc3Cl)C(=O)c3cnn([C@H]4CC[C@](C)(C(=O)O)CC4)c3Cl)C[C@@H]21` [Example 367, trans-4-(5-chloro-4-((2-(3,5-dichloropyridin-4-yl)-2-oxoethyl)((1R,3r,5S)-6,6-dimethylbicyclo[3.1.0]hexan-3-yl)carbamoyl)-1H-pyrazol-1-yl)-1-methylcyclohexanecarboxylic acid], the IC50 rises from 15100 pM to 30200 pM (2-fold).

Going from `CC1(C)[C@@H]2C[C@H](N(C[C@@H](O)c3ccccc3Cl)C(=O)c3cnn([C@H]4CC[C@](C)(C(=O)O)CC4)c3C(F)(F)F)C[C@@H]21` [Example 369, trans-4-(4-((2-(2-chlorophenyl)-2-hydroxyethyl)((1R,3r,5S)-6,6-dimethylbicyclo[3.1.0]hexan-3-yl)carbamoyl)-5-(trifluoromethyl)-1H-pyrazol-yl)-1-methylcyclohexanecarboxylic acid] to `COc1ccccc1[C@@H](O)CN(C(=O)c1cnn([C@H]2CC[C@](C)(C(=O)O)CC2)c1C(F)(F)F)[C@H]1C[C@@H]2[C@H](C1)C2(C)C` [Example 370, trans-4-(4-(((1R,3r,5S)-6,6-dimethylbicyclo[3.1.0]hexan-3-yl)(2-hydroxy-2-(2-methoxyphenyl)ethyl)carbamoyl)-5-(trifluoromethyl)-1H-pyrazoH-yl)-1-methylcyclohexanecarboxylic acid], the IC50 falls from 1.23e+06 pM to 537000 pM (2.3-fold).

For `COc1ccccc1[C@H](O)CN(C(=O)c1cnn([C@H]2CC[C@](C)(C(=O)O)CC2)c1C(F)(F)F)[C@H]1C[C@@H]2[C@H](C1)C2(C)C` [Example 371, trans-4-(4-(((1R,3r,5S)-6,6-dimethylbicyclo[3.1.0]hexan-3-yl)(2-hydroxy-2-(2-methoxyphenyl)ethyl)carbamoyl)-5-(trifluoromethyl)-1H-pyrazol-1-yl)-1-methylcyclohexanecarboxylic acid], the IC50 was 5.37e+06 pM.
